The conditions of series [1]: known value; cited from earlier work.
Series [2] in a line: EPR spectra of H—NRs in aqueous solution (line width). It is filed as physicochemical. As to conditions: 0.1 mM aqueous solutions, pH 7.4, room temperature, X-band. On the procedure:
FIG. 2. Spectra EPR of TEMPO and different H—NRs (0.1 mM aqueous solutions, pH 7.4). EPR spectra were recorded at room temperature using an X-band radiospectrometer MS200 (Magnettech GmbH, Berlin). Instrument parameters were 10 mW microwave power, 0.1 mT amplitude modulation, 100 kHz modulation frequency, sweep field 11 mT and 120 s sweep time.
The line widths of the EPR signals of all H—NRs were slightly broader in comparison to the EPR signal of TEMPOL, indicating slight decrease in the mobility of nitroxyl groups upon binding to heparin as well as spin-spin interactions between them. Thus, ΔH (in gauss) were 1.8, 2.1, 2.5, 2.0 and 2.5 for TEMPOL, H—NR-1, H—NR-2, H—NR-3 and H—NR-4, respectively. The line width the signal is critical for the in vivo EPR imaging. A narrower signal provides for better resolution, and is therefore preferred. As a result, the H—NR-3, in which nitroxide is bound to heparin via a linker, provides for a higher spectral mobility, and is thus preferred for EPR imaging.

In series [3] the test system is heparin-binding sites of the vascular wall (rat aorta). The experiment in a line: Binding to rat aortic rings, detected by EPR (X-band) after wash with Krebs. The note with it: for replacement of heparin-nitroxide from heparin-binding sites of rat aorta by dextran: 100 μM H—NR-2, 1 hr, 37° C., with 1 mM or 10 mM dextran (up to 100 molar excess). The method, then: Therefore, the heparin-nitroxide derivative of the present invention is able to specifically bind with high affinity to specific sites in biological vessels.
FIG. 4. Spectra EPR, (A) 10 μM H—NR-1 solution; (B) rat aortic ring (3 mm long) pre-incubated with 10 μM H—NR-1 for 1 hour and then washed 3 times with Krebs buffer; (C) rat aortic ring (3 mm long) pre-incubated with 10 μM H—NR-1 in the presence of heparin (liquemin, 30 units/ml) for 1 hour and then washed 3 times with Krebs buffer; (D) 5 μM 4-hydroxy-TEMPO; (E) rat aortic ring (3 mm long) pre-incubated with 10 μM 4-hydroxy-TEMPO for 1 hour and then washed 3 times with Krebs buffer. EPR spectra were recorded at room temperature using an X-band radiospectrometer MS200 (Magnettech GmbH, Berlin). Instrument parameters were 10 mW microwave power, 0.1 mT amplitude modulation, 100 kHz modulation frequency, sweep field 5 mT and 60 s sweep time. Representative spectra of 3 experiments are shown.
FIG. 5. The binding of H—NR-1 to rat aorta as a function of time and concentration. Rat aortic rings (3 mm long) were incubated (37° C.) with 10 μM or 100 μM H—NR-1 either for 0.5 hr, 1 hr, 1.5 hr, 2 hr, 3 hr and then washed out with Krebs solution. To estimate the amount of H—NR-1 bound to tissue, aortic rings were placed in capillaries, and spectra EPR(X-band) were recorded.
FIG. 6. […] Rat aortic rings (3 mm long) with or without endothelium were incubated (37° C.) with 10 μM H—NR-1 for 1 hr and then washed out with Krebs solution. To estimate the amount of H—NR-1 bound to tissue, aortic rings were placed in capillaries and spectra EPR(X-band) were recorded at room temperature.
FIG. 12. […] Rat aortic rings (3 mm long) were incubated (37° C.) with 100 μM H—NR-2 for 1 hr and then washed out with Krebs solution. Rings were incubated with H—NR-2 along (A) or in the presence of 1 mM dextran (B), or in the presence of 10 mM dextran (C). To estimate the amount of H—NR-2 bound to tissue, aortic rings were placed in capillaries, and spectra EPR(X-band) were recorded.

As to `CC1(C)CC(O)CC(C)(C)N1[O]` [TEMPOL, 4-hydroxy-2,2,6,6-tetramethylpiperidine-N-oxyl], in series [1], the half-life in vivo entry is on record as “only a few minutes”. Besides, in series [2], the “ΔH, line width of the EPR signal” value is 1.8 gauss. Moreover, in series [3] (aortic ring pre-incubated with 10 μM for 1 hour, washed 3 times with Krebs buffer), the “binding to rat aorta (EPR signal in tissue after wash)” value is “did not result in the appearance of the EPR signal in tissue”.

For dextran, the “replacement of heparin-nitroxide from heparin-binding sites of rat aorta by dextran” value in series [3] is listed as “unable to replace heparin-nitroxide from the vascular tissue”; in series [3] (listed as Dextran), “unable to replace Heparin-nitroxide”.

These data come from patent publication US20100310471A1, “ANTIOXIDANT AND PARAMAGNETIC HEPARIN-NITROXIDE DERIVATIVES” (Johannes Gutenberg-Universität Mainz, priority 2007, published 2010).
